Assay results from patent US7199114B2, “Triterpene quaternary salts as biologically active surfactants” (The Regents of the University of Minnesota, priority 2002, dated 2007).

Tests used:
[1] = background statement; cited from earlier work
dollar spot [2] = experiment: Bentgrass dollar spot trial at Rutgers University, lesion count; type: in vivo; settings: text summary of Table 7
Method: Similar experiments were performed at Rutgers University to test for treatment of bentgrass infected with dollar spot. Test compounds were mixed in aqueous solution with the adjuvant Latron B-1956® (Rohm and Haas) and applied to the grass at a rate of 4.18 fluid ounces per 1000 square feet and an interval of every 7 days. The number of lesions per plot were then counted and averaged over the replicate plots. Treatment with fertilizers or other fungicides were also performed.

[3] = tested on: Enterococcus faecium Vancomycin-sensitive (first listed); experiment: Anti-bacterial activity, broth culture MIC; type: cell-based; settings: Enterococcus faecium, read-out: Approximate Minimum Inhibitory Concentration, MIC
Method: (§1) Several uncharged or negatively charged triterpenes, and several positively charged triterpenes of the invention were tested for anti-bacterial activity against antibiotic-susceptible and antibiotic resistant strains of four types of bacteria of concern in clinics and hospitals. The triterpenes weres tested in broth culture in triplicate for ability to inhibit bacterial growth. The compounds tested are those listed below.
(§2) The lowest concentration which inhibits bacterial growth is referred to as the minimum inhibitory concentration (MIC), the standard measurement of anti-microbial activity.

[4] = tested on: Enterococcus faecium Vancomycin-sensitive (second listed); experiment: Anti-bacterial activity, broth culture MIC; type: cell-based; settings: Enterococcus faecium, read-out: Approximate Minimum Inhibitory Concentration, MIC
Method: as §1, §2

[5] = tested on: Escherichia coli Ampicillin sensitive; experiment: Anti-bacterial activity, broth culture MIC; type: cell-based; settings: read-out: Approximate Minimum Inhibitory Concentration, MIC
Method: as §1, §2

[6] = tested on: Eschericia coli Ampicillin-resistant; experiment: Anti-bacterial activity, broth culture MIC; type: cell-based; settings: read-out: Approximate Minimum Inhibitory Concentration, MIC
Method: as §1, §2

[7] = tested on: Staphylococcus aureus Methicillin-resistant; experiment: Anti-bacterial activity, broth culture MIC; type: cell-based; settings: Staphylococcus aureus, read-out: Approximate Minimum Inhibitory Concentration, MIC
Method: as §1, §2

[8] = tested on: Staphylococcus aureus Methicillin-sensitive; experiment: Anti-bacterial activity, broth culture MIC; type: cell-based; settings: Staphylococcus aureus, read-out: Approximate Minimum Inhibitory Concentration, MIC
Method: as §1, §2

dollar spot [9] = experiment: Antifungal treatment on turf grass plots (Example 84), dollar spot count; type: in vivo; settings: Table 3 experiment, 17.8 g/1000 sq. ft. (Daconil Ultrex 3.2 oz./1000 sq. ft.)
Method: (§3) Plots of creeping bentgrass, cv. “Pennlinks,” were treated with water based sprays of the test compounds. Sprays were delivered by CO2-charged sprayer to deliver the equivalent of 2 gallons of spray per 1000 sq. ft of plot area. Plots were 15 sq. ft. each, and treatments were mixed to apply material to 75 sq. ft (5 replicates), although only 4 replicates were treated. The quaternary salts of triterpenes were applied at 17.8 g/1000 sq. ft. for 14 days. Daconil Ultrex® was applied at 3.2 oz./1000 sq. ft. for 14 days. The experiment used a randomized complete block design, with 4 replicates per treatment. Disease pressure was high. Pennlinks […] is moderately to highly susceptible to both dollar spot and brown patch. For brown patch, caused by Rhozoctonia sofani. a visual estimate of the percent of the plot area affected was recorded. Turf quality was estimated on a 1 to 9 scale, with 1 being worst and 9 being perfect. A rating of 6 is considered acceptable.

[10] = tested on: brown patch, caused by Rhozoctonia sofani; experiment: Antifungal treatment on turf grass plots (Example 84), brown patch; type: in vivo; settings: Table 3 experiment, 17.8 g/1000 sq. ft. (Daconil Ultrex 3.2 oz./1000 sq. ft.)
Method: as §3

[11] = Antifungal treatment on turf grass plots (Example 84), turf quality; type: in vivo, creeping bentgrass, cv. Pennlinks; settings: Table 3 experiment, 1 to 9 scale, 9 perfect, 17.8 g/1000 sq. ft. (Daconil Ultrex 3.2 oz./1000 sq. ft.)
Method: as §3

[12] = tested on: Pseudomonas aeruginosa Antibiotic sensitive; experiment: Anti-bacterial activity, broth culture MIC; type: cell-based; settings: read-out: Approximate Minimum Inhibitory Concentration, MIC
Method: as §1, §2

[13] = tested on: Pseudomonas aeruginosa Multi-drug resistant; experiment: Anti-bacterial activity, broth culture MIC; type: cell-based; settings: read-out: Approximate Minimum Inhibitory Concentration, MIC
Method: as §1, §2

SMILES	MIC [3] [µg/mL]	MIC [4] [µg/mL]	MIC [6] [µg/mL]	MIC [7] [µg/mL]	MIC [8] [µg/mL]	other results
C=C(C)[C@@H]1CCC2(COC(=O)C[n+]3cccc(CNC(N)=O)c3)CC[C@]3(C)C(CCC4[C@@]5(C)CC[C@H](OC(=O)C[n+]6cccc(CNC(N)=O)c6)C(C)(C)C5CC[C@]43C)C12.Cl.Cl (some centres unmarked)						melting point: 245 to 247 °C (dec.)
C=C(C)[C@@H]1CC[C@]2(CO)CC[C@]3(C)[C@H](CC[C@@H]4[C@@]5(C)CC[C@H](O)C(C)(C)[C@@H]5CC[C@]43C)[C@@H]12 [betulin]						solubility in water [1]: about 0.15 mg/l
CCCCCCCCCC[N+](C)(CCCCCCCCCC)CC(=O)O[C@H]1CC[C@@]2(C)C(CC[C@]3(C)C2CC[C@@H]2C4[C@H]5OC[C@@]4(CCC5(C)C)CC[C@]23C)C1(C)C.[Cl-] (stereo partly drawn) [Compound 80, 3β-[(N-methyl-N,N-didecyl)aminoacetyloxy]-19β,28-epoxy-18α-oleanan chloride]						effectiveness against dollar spot (dollar spot [2]): particularly effective
Br.Br.C=C(C)[C@@H]1CC[C@]2(COC(=O)CCC[N+]34CCN(CC3)CC4)CC[C@]3(C)C(CCC4[C@@]5(C)CC[C@H](OC(=O)CCC[N+]67CCN(CC6)CC7)C(C)(C)C5CC[C@]43C)C12 (some centres unmarked) [Compound 25, Lup-20(29)-ene-3,28-bis[(N-(1,4-diazabicyclo[2.2.21]octyl)4-butyrate)]dibromide]	5	10	100	2	2	MIC [5]: 50 µg/mL
C=C(C[N+]12CCN(CC1)CC2)[C@@H]1CC[C@]2(COC(C)=O)CC[C@]3(C)C(CCC4[C@@]5(C)CC[C@H](OC(C)=O)C(C)(C)C5CC[C@]43C)C12.[Br-] (some centres unmarked) [Compound 18, 1-[3,28-(diacetoxy)lup-20(29)-ene-30-yl]-1,4-diazabicyclo[2.2.2]octane bromide]	5	5		5	5	Dollar Spot # of spots per plot (dollar spot [9]; Jul. 2, 2001): 20.8 spots per plot; Dollar Spot # of spots per plot (dollar spot [9]; Jul. 9, 2001): 14.3 spots per plot; Dollar Spot # of spots per plot (dollar spot [9]; Jul. 16, 2001): 1.8 spots per plot; Dollar Spot # of spots per plot (dollar spot [9]; Jun. 25, 2001): 16.8 spots per plot; Brown Patch % of plot infected ([10]; Jul. 2, 2001): 37.5%; Brown Patch % of plot infected ([10]; Jul. 9, 2001): significantly suppress brown patch; Brown Patch % of plot infected ([10]; Jul. 9, 2001, listed as Comp. 18): 12.0%; Brown Patch % of plot infected ([10]; Jul. 16, 2001): 6.3%; Brown Patch % of plot infected ([10]; Jun. 25, 2001): 14.8%; Turf quality ([11]; Jul. 2, 2001): 4.63; Turf quality ([11]; Jul. 9, 2001): 5.50; Turf quality ([11]; Jun. 25, 2001): 4.63
Br.C=C(C)[C@@H]1CC[C@]2(COC(=O)CCC[n+]3ccc(N(C)C)cc3)CC[C@]3(C)C(CCC4[C@@]5(C)CC[C@H](OC(=O)CCC[n+]6ccc(N(C)C)cc6)C(C)(C)C5CC[C@]43C)C12 (some centres unmarked) [Compound 40, Lup-20(29)-ene3,28-bis [N-(4-dimethylaminopyridinium)4-butyrate] dibromide]	2	5	50	5	5	MIC [5]: 20 µg/mL; MIC [12]: 200 µg/mL; MIC [13]: 200 µg/mL
Br.C=C(C[n+]1ccc(N(C)C)cc1)[C@@H]1CC[C@]2(COC(C)=O)CC[C@]3(C)C(CCC4[C@@]5(C)CC[C@H](OC(C)=O)C(C)(C)C5CC[C@]43C)C12 (some centres unmarked) [Compound 12, 1-(3,28-(diacetoxy)lup-20(29)-ene-30-yl)4-(dimethylamino)pyridinium bromide]	2	2	50	5	2	
